ChEMBL document CHEMBL1130521, “A conformational study of ligands for omega modulatory sites of GABAa receptors by NOESY NMR spectroscopy and distance geometry” (Bioorg Med Chem Lett, 1997)

Experiments:
[1] = biological target: T1, Gamma-aminobutyric acid receptor subunit alpha-5 (Homo sapiens, UniProt P31644); test: Inhibition of [3H]flumazenil binding to recombinant GABA-A receptor alpha-5 subunit in cerebellum; type: tissue-based
T1 sequence (P31644 whole entry): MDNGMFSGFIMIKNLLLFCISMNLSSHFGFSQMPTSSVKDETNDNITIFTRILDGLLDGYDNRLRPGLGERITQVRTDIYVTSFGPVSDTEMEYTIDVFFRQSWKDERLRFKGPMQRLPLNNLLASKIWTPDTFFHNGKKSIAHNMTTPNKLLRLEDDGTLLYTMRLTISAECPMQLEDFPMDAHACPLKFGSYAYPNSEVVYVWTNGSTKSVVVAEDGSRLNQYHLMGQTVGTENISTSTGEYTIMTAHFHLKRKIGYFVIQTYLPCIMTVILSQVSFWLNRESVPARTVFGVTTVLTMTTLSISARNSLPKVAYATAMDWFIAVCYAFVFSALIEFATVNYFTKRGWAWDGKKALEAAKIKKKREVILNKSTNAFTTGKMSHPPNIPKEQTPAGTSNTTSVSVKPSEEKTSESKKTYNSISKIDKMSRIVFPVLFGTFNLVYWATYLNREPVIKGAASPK

[2] = biological target: T1, Gamma-aminobutyric acid receptor subunit alpha-5; test: Inhibition of [3H]flumazenil binding to recombinant GABA-A receptor alpha-5 subunit in spinal cord; type: tissue-based

## CCCC(=O)N(C)Cc1c(-c2ccc(Cl)cc2)nc2ccccn12
[1]
  IC50: 2.7 nM
[2]
  IC50: 4.6 nM
